From patent publication US6440980B1, “Synergistic inhibition of viral replication by long-chain hydrocarbons and nucleoside analogs” (Avanir Pharmaceuticals, priority 1996, dated 2002) come the findings set out here.

Molecules are shown by their SMILES. Like-named read-outs stand apart in the source and are kept apart here.

The test system of series [1] is HSV-1. In words: HSV-1 PFU production in Vero cell cultures. The format is cell-based, HSV-1 (MacIntyre strain).
Series [2] concerns vaccinia virus. In words: microbe, parasite or virus in culture. Particulars: for EC50: read-out: EC50 for inhibition of vaccinia virus replication. In kind it is cell-based, vaccinia virus (WR strain).
Series [3] relates to human foreskin fibroblasts. In words: Cell proliferation (cytostasis), sulforhodamine staining. To be noted: 1,000 cells/well, 96-hours incubation. In kind it is cell-based. The method, then: The effects of n-docosanol and n-docosane suspensions on cell proliferation (cytostasis) were quantitated using the sulforhodamine staining assay on cultures of human foreskin fibroblasts incubated in 96-well plates.
Foreskin fibroblasts were plated with or without aliphatic alcohol suspensions or control surfactant suspensions at 1,000 cells/well (FIG. 6A and FIG. 7) or at 30,000 cells/well (FIG. 6B) in 96 well plates. After incubation for 72 hr or 96 hr at 37° C., cells were precipitated with trichloroacetic acid, stained with sulforhodamine and quantitated by measuring the OD540 in a microtiter plate reader.

Series [4] concerns HSV-2. As to the kind of experiment: Inhibition of HSV-2 plaque formation in Vero cells. Particulars: for Percent Inhibition of Plaque Formation: PLURONIC F-68 suspension added 12 hr before HSV-2 (erucyl alcohol with the virus), Toxic = monolayer destroyed within 24 hr; for inhibition of viral plaque production at concentrations that were not cytotoxic: 0.2 μM stearyl alcohol, 2 μM arachidyl alcohol; for 50% Inhibition Concentration (mM): alcohol suspension in PLURONIC F-68, Vero cells incubated 12 hr before HSV-2, linear regression, Toxic = monolayer destroyed by end of 12-hour incubation with at least 1.5 mM.

Series [5] deals with influenza virus. In kind it is in vivo, human. To be noted: for highest recorded body temperature (mean): erucyl alcohol 0.15 mM five times per day, erucamide 1.5 mM three times per day, untreated 38.9; for mean duration of flu symptoms: untreated 3 days.
The test system of series [6] is Vero cells. Particulars: African green monkey.
Series [7] relates to Vero cells. In words: Cytotoxicity to Vero cells (monolayer integrity, trypan blue exclusion). Particulars: surfactant suspension.
The test system of series [8] is all cell lines tested. As to the kind of experiment: Cytotoxicity in mammalian cell cultures. Particulars: for IC50: read-out: IC50 (cellular toxicity by chain length). An excerpt:
Three assays were used to quantitate the effects of aliphatic alcohols on cell survival and proliferation: 1) counting cells with a hemocytometer and determining the number of cells that exclude trypan blue; 2) measuring the incorporation of ^3H-thymidine into cellular DNA by adding ^3H-thymidine (from New England Nuclear) to the culture medium, lysing the cells with water and harvesting the DNA onto filter paper; and 3) measuring total cellular protein using a sulforhodamine assay adapted for use in 96-well microtiter plates (Skehan et al., J. Natl. Cancer Inst. […] All of these methods are well known cell viability and cytotoxicity assays.

Series [9] concerns B cell hybridoma (MBI-9). As to the kind of experiment: 3H-thymidine incorporation into DNA of B cell hybridoma. The format is cell-based, murine. To be noted: Mus musculus, read-out: IC50 (3H-thymidine incorporation). (Uptake of a labelled nucleoside into DNA is a usual measure of proliferation.)
Where [10] appears, read: 15 mM n-docosanol, 500 PFU/culture, three days, read-out: EC90 for inhibition of HSV-1 PFU production in the presence of n-docosanol.
Setting [11] is: Human alphaherpesvirus 1, Vero, 72 h, read-out: EC90 for inhibition of HSV-1 PFU production, drug used alone.
The mark [12] stands for this setting: Orthopoxvirus vaccinia, Vero, 72 h.
Setting [13] is: Human alphaherpesvirus 2, Vero, read-out: Percent Inhibition of Plaque Formation.
Where [14] appears, read: Human alphaherpesvirus 2, Vero, read-out: 50% Inhibition Concentration (mM).

Regarding `NC(=O)c1ncn([C@@H]2O[C@H](CO)[C@@H](O)[C@H]2O)n1` [ribavirin], in [1] (15 mM n-docosanol), the “reduction of EC90 by n-docosanol” value turned out to be 75 fold. For the same compound, the EC90 was about 0.33 µM in series [1] (setting [10]) and about 24.6 µM in [1] (setting [11]). Besides, the EC50 in series [2] (setting [12]) was about 25 µM.
For the compound `Nc1ncnc2c1ncn2[C@@H]1O[C@H](CO)[C@@H](O)[C@@H]1O` [Ara-A, Adenine 9-β-D-arabinofuranoside], the “reduction of EC90 by n-docosanol” value in series [1] (15 mM n-docosanol) is given as 16 fold. The EC90 in [1] (setting [10]) was about 1.4 µM; in series [1] (control cultures without n-docosanol, 500 PFU/culture, three days, read-out: EC90 for inhibition of HSV-1 PFU production, drug used alone), about 22 µM. Besides, the EC50 in series [2] (control cultures (medium or PLURONIC F-68), 3 days post-infection) was about 20 µM.
Consider `CCCCCCCCCCCCCCCCCCCCCC` [n-docosane], for which the “antiproliferation effects compared to the surfactant control” value in [3] is “minimal antiproliferation effects”. Also, in [4] (setting [13]), the inhibition at 1000 µM came to 28%, the inhibition at 2000 µM was 31%, the inhibition at 4000 µM is 42% and the inhibition at 8000 µM is 55%. The inhibition at 15000 µM in series [4] (setting [13]) amounted to 58%.
Regarding `O=c1[nH]c(=O)n([C@H]2C[C@H](O)[C@@H](CO)O2)cc1C(F)(F)F` [Trifluridine, trifluridine deoxyriboside], in series [1] (15 mM n-docosanol), the “reduction of EC90 by n-docosanol” value stood at 5 fold. Besides, the EC90 in series [1] (setting [11]) is about 6.8 µM; in series [1] (read-out: EC90 for inhibition of HSV-1 PFU production in the presence of n-docosanol, 15 mM n-docosanol, 500 PFU/culture, three days), about 1.35 µM. Moreover, in [2] (setting [12]), the EC50 is about 2 µM.
Take `CCCCCCCC/C=C\CCCCCCCCCCCCO` [erucyl alcohol, cis-13-docosen-1-ol]: in series [5], the “highest recorded body temperature (mean)” value was determined as 37.8 °C and the “mean duration of flu symptoms” value is 1.7 days. Further, the “frequency of fever per flu episode” value in series [5] (in vivo) is reported as “one to three”. In [4] (0.15 mM vs 9 mM), the “EC50 lower than the concentration required for n-docosanol” value was 60 fold. The “Percent Inhibition of Plaque Formation” value in series [4] (2 mM) is on record as “Toxic”. Moreover, the “Percent Inhibition of Plaque Formation” value in series [4] (4 mM) is given as “Toxic”. Besides, the “Percent Inhibition of Plaque Formation” value in [4] (8 mM) is reported as “Toxic”. Further, the “Percent Inhibition of Plaque Formation” value in series [4] (15 mM) is “Toxic”. In addition, the direct virucidal effect entry in [4] (HSV-2 incubated with the suspension for 2 hours, subsequent plaque formation on Vero cells) is “did not inactivate the virus”. For the same compound, in series [4] (setting [13]), the inhibition at 250 µM worked out at 70%, the inhibition at 500 µM was determined as 91% and the inhibition at 1000 µM stood at 93%. In addition, the EC50 in [4] (Human alphaherpesvirus 2, Vero, read-out: effective concentration required to inhibit plaque formation by 50% (EC50), surfactant suspension, Example 5) amounted to 0.15 mM. Besides, in series [6], the “concentrations tolerable to the cells” value was at most 1000 µM; the “concentrations toxic to Vero cells (cells rounded and detached)” value is 2000 to 15000 µM.
`CCCCCCCC/C=C\CCCCCCCCCCCC(N)=O` [erucamide, cis-13-docosenoamide]: in series [5], the “highest recorded body temperature (mean)” value is “about 37 °C” and the “mean duration of flu symptoms” value was “two”. Also, in series [4] (setting [13]), the inhibition at 30 µM amounted to 34%, the inhibition at 590 µM was 42%, the inhibition at 890 µM was determined as 44% and the inhibition at 1200 µM was 58%. For the same compound, in series [4] (setting [13]), the inhibition at 1500 µM is 68% and the inhibition at 1700 µM worked out at 78%. Moreover, the “concentrations tolerable to the cells” value in [7] was at most 1700 µM. In addition, the “concentrations toxic to Vero cells (cells rounded and detached)” value in series [6] is at least 3000 µM.
Take `CCCCCCCCCCCCCCCCCCCCO` [arachidyl alcohol]: the IC50 was 1500 µM in [8] and about 1700 µM in series [9] (48 hr incubation). Moreover, the “cytotoxicity of the suspensions (in words)” value (“cytotoxicity” for short) in series [8] (surfactant suspensions) is “extremely cytotoxic”. Moreover, in [4], the “inhibition of viral plaque production at concentrations that were not cytotoxic” value is recorded as “no inhibition of viral plaque production”. The “50% Inhibition Concentration (mM)” value in series [4] was “Toxic**”. Further, the “concentration that was not cytotoxic” value in series [6] is 2 µM.
For the compound `CCCCCCCCCCCCCCCCCCCCCO` [heneicosanol], the IC50 in [8] was over 15000 µM. Also, the “cytotoxicity” value in series [8] (surfactant suspensions) is listed as “same minimal level of cytotoxicity”. Also, the EC50 in series [4] (setting [14]) came out at 16 mM.
Turning to `CCCCCCCCCCCCCCCCCCCCCC(=O)O` [n-docosanoic acid], the “Percent Inhibition of Plaque Formation” value in [4] (4 mM) is given as “Toxic”. Moreover, the “Percent Inhibition of Plaque Formation” value in series [4] (8 mM) is reported as “Toxic”. The “Percent Inhibition of Plaque Formation” value in [4] (15 mM) is given as “Toxic^†”. In series [4] (setting [13]), the inhibition at 500 µM was 26%, the inhibition at 1000 µM was 16% and the inhibition at 2000 µM came to 30%. For the same compound, in series [7], the “concentrations tolerable to the cells” value is at most 2000 µM.
With `CCCCCCCCCCCCCCCCCCCCCCCCCCCCO` [n-octacosanol], the “cytotoxicity” value in series [8] is “same minimal level of cytotoxicity”. In series [4] (setting [14]), the EC50 was 10.5 mM.
On to `CCCCCCCCCCCCCCCCCCCCCCCCO` [lignoceryl alcohol, n-tetracosanol], for which the “cytotoxicity” value in [8] (surfactant suspensions) is reported as “same minimal level of cytotoxicity”. Besides, in [4] (setting [14]), the EC50 turned out to be 14.1 mM.
Regarding `CCCCCCCCCCCCCCCCCCO` [stearyl alcohol], the IC50 in [8] was under 35 µM. In addition, in [4], the “inhibition of viral plaque production at concentrations that were not cytotoxic” value was “no inhibition of viral plaque production” and the “50% Inhibition Concentration (mM)” value was “Toxic**”. In [9], the IC50 was under 35 µM.
In the case of `O=C(O)P(=O)(O)O` [PFA, phosphonoformic acid], the 90% effect concentration (EC90) was 17 µM in series [1] (setting [10]) and about 18 µM in series [1] (Human alphaherpesvirus 1, Vero, 72 h, control cultures without n-docosanol, 500 PFU/culture, three days, read-out: EC90 for inhibition of HSV-1 PFU production, drug used alone). For the same compound, the “interaction of n-docosanol with the antiviral activity of PFA against vaccinia virus” value in series [2] (presence or absence of n-docosanol or PLURONIC F-68) is recorded as “no drug-drug interaction”.

One may read the EC90 as the point of the concentration-response curve where the effect stands at 90%. Broadly, the inhibition is the drop in the measured response relative to a control, in per cent.
